Experimental data: publication PMC11191687

Test: lactamisation (head-to-tail or side-chain-to-tail) of unprotected peptide acyl azide (from hydrazide, 20 equiv NaNO2, pH 3, -15 C, then NaHCO3 to pH ~7), MeCN cosolvent
Settings: aq phosphate buffer (6 M GdmCl) diluted with 2 vol 50% MeCN/water, 2.2 mM, 2 steps

C=CC[C@@H]1NC(=O)[C@H](CC(C)C)NC(=O)[C@H](CC(C)C)N(C)C(=O)[C@H](C)NC(=O)[C@H](Cc2ccc(O)c([N+](=O)[O-])c2)NC(=O)[C@H](CC(C)C)N(C)C(=O)[C@H](Cc2cn(C)c3ccccc23)NC1=O [H-allylGly-Trp(1-Me)-N-Me-Leu-Tyr(3-NO2)-Ala-N-Me-Leu-Leu-N3]
ring closure, conversion by HPLC (from C=CC[C@H](N)C(=O)N[C@@H](Cc1cn(C)c2ccccc12)C(=O)N(C)[C@@H](CC(C)C)C(=O)N[C@@H](Cc1ccc(O)c([N+](=O)[O-])c1)C(=O)N[C@@H](C)C(=O)N(C)[C@@H](CC(C)C)C(=O)N[C@@H](CC(C)C)C(=O)N=[N+]=[N-], 21-membered ring, 0.35 h): 59%

CC(C)C[C@H]1C(=O)N[C@@H](C)C(=O)N[C@@H](C)C(=O)N(C)[C@@H](CC(C)C)C(=O)N[C@@H](C)C(=O)NCC(=O)N[C@@H](C)C(=O)N1C [H-Ala-N-Me-Leu-Ala-Ala-N-Me-Leu-Ala-Gly-N3]
ring closure, conversion by HPLC (from CC(C)C[C@@H](C(=O)N[C@@H](C)C(=O)N[C@@H](C)C(=O)N(C)[C@@H](CC(C)C)C(=O)N[C@@H](C)C(=O)NCC(=O)N=[N+]=[N-])N(C)C(=O)[C@H](C)N, 21-membered ring, 0.35 h): 90%

CC[C@H](C)[C@@H]1NC(=O)CNC(=O)[C@H](CO)NC(=O)[C@@H]2CCCN2C(=O)[C@H](C(C)C)NC(=O)[C@@H]2CCCN2C(=O)CNC(=O)[C@H](Cc2ccccc2)NC1=O [H-Pro-Val-Pro-Ser-Gly-Ile-Phe-Gly-N3]
ring closure, conversion by HPLC (from CC[C@H](C)[C@H](NC(=O)CNC(=O)[C@H](CO)NC(=O)[C@@H]1CCCN1C(=O)[C@@H](NC(=O)[C@@H]1CCCN1)C(C)C)C(=O)N[C@@H](Cc1ccccc1)C(=O)NCC(=O)N=[N+]=[N-], 24-membered ring, 1.67 h): 58%

C[C@@H]1NC(=O)[C@H](C)NC(=O)[C@@H]2CCCN2C(=O)[C@H](C)NC(=O)[C@H](C)NC(=O)[C@@H]2CCCN2C(=O)[C@H](C)NC1=O [H-Ala-Pro-Ala-Ala-Pro-Ala-Ala-N3]
ring closure, conversion by HPLC (from C[C@H](N)C(=O)N1CCC[C@H]1C(=O)N[C@@H](C)C(=O)N[C@@H](C)C(=O)N1CCC[C@H]1C(=O)N[C@@H](C)C(=O)N[C@@H](C)C(=O)N=[N+]=[N-], 21-membered ring, 0.68 h): 80%

CC(C)C[C@H]1C(=O)N[C@@H](C)C(=O)N[C@@H](C)C(=O)N[C@@H](C)C(=O)N(C)[C@@H](CC(C)C)C(=O)N[C@@H](C)C(=O)N[C@@H](C)C(=O)N1C [H-Ala-N-Me-Leu-Ala-Ala-N-Me-Leu-Ala-Ala-N3]
ring closure, conversion by HPLC (from CC(C)C[C@@H](C(=O)N[C@@H](C)C(=O)N[C@@H](C)C(=O)N(C)[C@@H](CC(C)C)C(=O)N[C@@H](C)C(=O)N[C@@H](C)C(=O)N=[N+]=[N-])N(C)C(=O)[C@H](C)N, 21-membered ring, 0.35 h): 89%

C=CC[C@@H]1NC(=O)[C@H](CC(C)C)NC(=O)[C@H](CC(C)C)N(C)C(=O)[C@H](C)NC(=O)[C@H](Cc2ccc(O)c([N+](=O)[O-])c2)NC(=O)[C@H](CC(C)C)N(C)C(=O)[C@H](Cc2cn(C)c3ccccc23)NC1=O [H-Leu-allylGly-Trp(1-Me)-N-Me-Leu-Tyr(3-NO2)-Ala-N-Me-Leu-N3]
ring closure, conversion by HPLC (from C=CC[C@H](NC(=O)[C@@H](N)CC(C)C)C(=O)N[C@@H](Cc1cn(C)c2ccccc12)C(=O)N(C)[C@@H](CC(C)C)C(=O)N[C@@H](Cc1ccc(O)c([N+](=O)[O-])c1)C(=O)N[C@@H](C)C(=O)N(C)[C@@H](CC(C)C)C(=O)N=[N+]=[N-], 21-membered ring, 1.35 h): 20%

CC(C)C[C@@H]1NC(=O)[C@H](CCCN)NC(=O)[C@H](C(C)C)NC(=O)[C@@H]2CCCN2C(=O)[C@@H](Cc2ccccc2)NC(=O)[C@H](CC(C)C)NC(=O)[C@H](CCCN)NC(=O)[C@H](C(C)C)NC(=O)[C@@H]2CCCN2C(=O)[C@@H](Cc2ccccc2)NC1=O [H-D-Phe-Pro-Val-Orn-Leu-D-Phe-Pro-Val-Orn-Leu-N3]
ring closure, conversion by HPLC (from CC(C)C[C@H](NC(=O)[C@H](CCCN)NC(=O)[C@@H](NC(=O)[C@@H]1CCCN1C(=O)[C@@H](Cc1ccccc1)NC(=O)[C@H](CC(C)C)NC(=O)[C@H](CCCN)NC(=O)[C@@H](NC(=O)[C@@H]1CCCN1C(=O)[C@H](N)Cc1ccccc1)C(C)C)C(C)C)C(=O)N=[N+]=[N-], 30-membered ring, 0.33 h): 92%

CC(C)C[C@@H]1NC(=O)[C@H](Cc2ccc(O)cc2)NC(=O)[C@@H]2CCCN2C(=O)CNC(=O)[C@H](C)NC1=O [H-Gly-Pro-Tyr-Leu-Ala-N3]
ring closure, conversion by HPLC (from CC(C)C[C@H](NC(=O)[C@H](Cc1ccc(O)cc1)NC(=O)[C@@H]1CCCN1C(=O)CN)C(=O)N[C@@H](C)C(=O)N=[N+]=[N-], 15-membered ring, 0.35 h): 77%

C=CC[C@@H]1NC(=O)[C@H](CC(C)C)NC(=O)[C@H](CC(C)C)N(C)C(=O)[C@H](C)NC(=O)[C@H](Cc2ccc(O)c([N+](=O)[O-])c2)NC(=O)[C@H](CC(C)C)NC(=O)[C@H](Cc2cn(C(C)(C)C=C)c3ccccc23)NC1=O
ring closure, conversion by HPLC (from C=CC[C@H](NC(=O)[C@H](CC(C)C)NC(=O)[C@H](CC(C)C)N(C)C(=O)[C@H](C)NC(=O)[C@H](Cc1ccc(O)c([N+](=O)[O-])c1)NC(=O)[C@H](CC(C)C)NC(=O)[C@@H](N)Cc1cn(C(C)(C)C=C)c2ccccc12)C(=O)N=[N+]=[N-], 21-membered ring, 0.27 h): < 50%

CCCCC(C)CCC(=O)N[C@@H](CCN)C(=O)N[C@H](C(=O)N[C@@H](CCN)C(=O)N[C@H]1CCNC(=O)[C@H]([C@@H](C)O)NC(=O)[C@H](CCN)NC(=O)[C@H](CCN)NC(=O)[C@H](CC(C)C)NC(=O)[C@@H](CC(C)C)NC(=O)[C@H](CCN)NC1=O)[C@@H](C)O (stereo partly shown)
ring closure, conversion by HPLC (from CCCCC(C)CCC(=O)N[C@@H](CCN)C(=O)N[C@H](C(=O)N[C@@H](CCN)C(=O)N[C@@H](CCN)C(=O)N[C@@H](CCN)C(=O)N[C@H](CC(C)C)C(=O)N[C@@H](CC(C)C)C(=O)N[C@@H](CCN)C(=O)N[C@@H](CCN)C(=O)N[C@H](C(=O)N=[N+]=[N-])[C@@H](C)O)[C@@H](C)O, 23-membered ring, 0.017 h): 56%

CSCC[C@@H]1NC(=O)[C@H](C(C)C)NC(=O)[C@H](CC(C)C)NC(=O)CNC(=O)[C@@H]2CCCN2C(=O)[C@H](C(C)C)NC(=O)CNC(=O)[C@H](Cc2ccccc2)NC1=O [H-Phe-Gly-Val-Pro-Gly-Leu-Val-Met-N3]
ring closure, conversion by HPLC (from CSCC[C@H](NC(=O)[C@@H](NC(=O)[C@H](CC(C)C)NC(=O)CNC(=O)[C@@H]1CCCN1C(=O)[C@@H](NC(=O)CNC(=O)[C@@H](N)Cc1ccccc1)C(C)C)C(C)C)C(=O)N=[N+]=[N-], 24-membered ring, 0.35 h): 38%

CC(=O)N[C@@H](Cc1ccccc1)C(=O)N[C@H]1CCCNC(=O)[C@H](CCCNC(=N)N)NC(=O)[C@H](Cc2c[nH]c3ccccc23)NC(=O)[C@@H](Cc2ccc(O)cc2)NC(=O)[C@@H]2CCCN2C1=O [Ac-Phe-Orn(cyclises via side chain)-Pro-D-Tyr-Trp-Arg-N3]
ring closure, conversion by HPLC (from CC(=O)N[C@@H](Cc1ccccc1)C(=O)N[C@@H](CCCN)C(=O)N1CCC[C@H]1C(=O)N[C@H](Cc1ccc(O)cc1)C(=O)N[C@@H](Cc1c[nH]c2ccccc12)C(=O)N[C@@H](CCCNC(=N)N)C(=O)N=[N+]=[N-], 18-membered ring, 0.35 h): 95%

C[C@@H]1NC(=O)CN(C)C(=O)[C@H](C)NC(=O)[C@H](C)NC(=O)CN(C)C(=O)[C@H](C)NC(=O)[C@H](C)NC1=O [H-Ala-Sar-Ala-Ala-Sar-Ala-Ala-N3]
ring closure, conversion by HPLC (from C[C@H](N)C(=O)N(C)CC(=O)N[C@@H](C)C(=O)N[C@@H](C)C(=O)N(C)CC(=O)N[C@@H](C)C(=O)N[C@@H](C)C(=O)N=[N+]=[N-], 21-membered ring, 0.35 h): 96%

C=CC[C@@H]1NC(=O)[C@H](CC(C)C)NC(=O)[C@H](CC(C)C)NC(=O)[C@H](C)NC(=O)[C@H](Cc2ccc(O)c([N+](=O)[O-])c2)NC(=O)[C@H](CC(C)C)N(C)C(=O)[C@H](Cc2cn(C(C)(C)C=C)c3ccccc23)NC1=O
ring closure, conversion by HPLC (from C=CC[C@H](NC(=O)[C@H](CC(C)C)NC(=O)[C@H](CC(C)C)NC(=O)[C@H](C)NC(=O)[C@H](Cc1ccc(O)c([N+](=O)[O-])c1)NC(=O)[C@H](CC(C)C)N(C)C(=O)[C@@H](N)Cc1cn(C(C)(C)C=C)c2ccccc12)C(=O)N=[N+]=[N-], 21-membered ring, 0.27 h): < 50%

C=CC[C@@H]1NC(=O)[C@H](CC(C)C)NC(=O)[C@H](CC(C)C)NC(=O)[C@H](C)NC(=O)[C@H](Cc2ccc(O)c([N+](=O)[O-])c2)NC(=O)[C@H](CC(C)C)NC(=O)[C@H](Cc2cn(C(C)(C)C=C)c3ccccc23)NC1=O
ring closure, conversion by HPLC (from C=CC[C@H](NC(=O)[C@H](CC(C)C)NC(=O)[C@H](CC(C)C)NC(=O)[C@H](C)NC(=O)[C@H](Cc1ccc(O)c([N+](=O)[O-])c1)NC(=O)[C@H](CC(C)C)NC(=O)[C@@H](N)Cc1cn(C(C)(C)C=C)c2ccccc12)C(=O)N=[N+]=[N-], 21-membered ring): 0%

CC(C)C[C@@H]1NC(=O)[C@H](CCCN)NC(=O)[C@H](C(C)C)NC(=O)[C@H](Cc2ccc(O)cc2)NC(=O)[C@H](CCC(N)=O)NC(=O)[C@H](CC(N)=O)NC(=O)[C@@H](Cc2ccccc2)NC(=O)[C@H](Cc2ccccc2)NC(=O)[C@@H]2CCCN2C(=O)[C@@H](Cc2ccccc2)NC1=O [H-D-Phe-Pro-Phe-D-Phe-Asn-Gln-Tyr-Val-Orn-Leu-N3]
ring closure, conversion by HPLC (from CC(C)C[C@H](NC(=O)[C@H](CCCN)NC(=O)[C@@H](NC(=O)[C@H](Cc1ccc(O)cc1)NC(=O)[C@H](CCC(N)=O)NC(=O)[C@H](CC(N)=O)NC(=O)[C@@H](Cc1ccccc1)NC(=O)[C@H](Cc1ccccc1)NC(=O)[C@@H]1CCCN1C(=O)[C@H](N)Cc1ccccc1)C(C)C)C(=O)N=[N+]=[N-], 30-membered ring, 0.33 h): 95%
